Experiment [1] concerns the target T1, Corticotropin-releasing factor receptor 2/Corticotropin-releasing factor-binding protein (Homo sapiens, UniProt P24387+Q13324).
T1 sequence (Q13324 whole entry): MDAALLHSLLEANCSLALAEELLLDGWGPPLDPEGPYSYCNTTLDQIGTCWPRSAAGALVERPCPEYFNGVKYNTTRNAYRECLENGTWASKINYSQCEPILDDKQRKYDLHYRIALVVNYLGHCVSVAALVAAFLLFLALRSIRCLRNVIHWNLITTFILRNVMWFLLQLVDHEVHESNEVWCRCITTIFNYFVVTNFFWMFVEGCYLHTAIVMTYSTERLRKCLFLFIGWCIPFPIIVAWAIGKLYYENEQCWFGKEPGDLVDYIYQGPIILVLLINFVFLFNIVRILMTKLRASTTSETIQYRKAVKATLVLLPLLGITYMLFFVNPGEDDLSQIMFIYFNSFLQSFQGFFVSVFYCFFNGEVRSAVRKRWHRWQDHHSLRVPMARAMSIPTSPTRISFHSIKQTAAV
T1 sequence (P24387 whole entry): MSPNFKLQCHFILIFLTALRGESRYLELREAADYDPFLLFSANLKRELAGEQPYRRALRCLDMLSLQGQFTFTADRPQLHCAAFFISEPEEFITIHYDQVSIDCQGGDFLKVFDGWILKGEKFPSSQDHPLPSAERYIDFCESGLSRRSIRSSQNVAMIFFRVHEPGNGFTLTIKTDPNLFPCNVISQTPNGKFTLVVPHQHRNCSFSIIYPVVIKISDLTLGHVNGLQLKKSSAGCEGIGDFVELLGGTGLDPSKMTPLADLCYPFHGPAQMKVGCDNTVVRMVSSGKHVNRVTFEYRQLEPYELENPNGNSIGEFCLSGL
As to the kind of experiment: Dose Response confirmation of uHTS hits for small molecule antagonists of the CRF-binding protein and CRF-R2 receptor complex. The format is functional. The conditions noted are these: read-out: IC50_Mean.

Experiment [2] can be described thus: CRF-BP/CRF-R2 complex antagonists, dose response, cell-based, uHTS hits, 384-well (AID 651639). Conditions: read-out: IC50_Mean. The format is functional, Homo sapiens.
For experiment [3], the target named is Latent membrane protein 1 (Human herpesvirus 4 (strain B95-8), UniProt P03230). Description: TES1-eGFP NF-kB reporter inhibition versus Tet-On dsRED, dose response, selectivity assay for LMP1 NF-kB inhibitor project, imaging, HEK293T, dual-color eGFP/dsRED, cherry-picks (AID 588398). The format is functional, cell-based.
Sequence of Latent membrane protein 1 (P03230 whole entry): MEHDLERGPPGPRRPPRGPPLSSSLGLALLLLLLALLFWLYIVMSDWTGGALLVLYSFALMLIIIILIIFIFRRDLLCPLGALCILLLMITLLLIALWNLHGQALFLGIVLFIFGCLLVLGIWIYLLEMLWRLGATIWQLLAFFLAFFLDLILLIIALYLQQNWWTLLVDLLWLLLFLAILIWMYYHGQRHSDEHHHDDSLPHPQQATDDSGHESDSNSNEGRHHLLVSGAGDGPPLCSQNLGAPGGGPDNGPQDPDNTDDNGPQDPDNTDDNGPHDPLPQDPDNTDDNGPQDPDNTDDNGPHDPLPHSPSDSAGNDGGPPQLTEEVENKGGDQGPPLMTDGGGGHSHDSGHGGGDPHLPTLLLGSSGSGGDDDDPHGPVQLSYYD
In the next experiment the test system is HEK293. Description: inhibitors of LMP1-driven NF-kB reporter, dose response, cell-based, HEK293, luciferase, cherry-pick (AID 588343). The format is functional. The conditions noted are these: Homo sapiens.
For experiment [4], the target named is T1, Corticotropin-releasing factor receptor 2/Corticotropin-releasing factor-binding protein. As to the kind of experiment: activators of CRF receptor 2 with binding protein – uHTS hits, confirmation (AID 602473). The conditions noted are these: read-out: EC50_Mean. In kind it is functional.

Active and inactive are the calls of the source.

In general, AC50 refers to the midpoint of the concentration-response curve, whichever way the signal moves. With `CC(C)c1cc(NC(=O)c2ccccc2)cc(C(C)C)c1O`, the IC50 in experiment [1] is < 0.368 µM (active); in experiment [2], 5.7 µM (active). Also, the concentration at half-maximal activity (AC50) in experiment [3] is 30 µM (active); in the experiment with HEK293 it was 98.1 µM (active). Further, in experiment [4], the EC50 was > 53 µM (inactive).

Source of the values: ChEMBL document CHEMBL1201862, “PubChem BioAssay data set” (2004).
